Entries after “also recorded” stand apart in the source; their conditions may differ.
Experiments:
[1] = tested on: male Sprague-Dawley rat; experiment: in vivo tolerability, dose escalation, adverse effect observation; conditions: for 15 min effects (adverse effects) / 30 min effects (adverse effects) / 60 min effects (adverse effects): n=3 rats, (x/3) animals affected; for tolerability: all four doses (30, 100, 315 and 500 mg/kg) p.o., 60 min observation
Experimental: In this example, the in vivo tolerability of Compounds 26, 21, 29, and 13 was assessed.
Naïve rats (male Sprague-Dawley rat) were acclimatized to the procedure room in their home cages up to 7 days following arrival to the test facility, with food and water available ad libitum. On the day of experiment, animals were acclimatized to the experimental room for at least one hour prior to the beginning of any experiment. All animals were tail marked, weighed and randomly assigned to treatment groups. The animals (n=3 per dose) were treated with either Compounds 26, 21, 29, and 13 (10 mL/kg, p.o.). For each compound a maximum of 4 doses were tested using a dose escalation procedure starting from 30 mg/kg. If this initial dose is well-tolerated, the dosage is increased to 100 mg/kg. If the 30 mg/kg dose is not tolerated, the dose is reduced to 15 mg/kg. Following the dose escalation procedure, if the 100 mg/kg dose is well-tolerated, the dose is escalated to 315 mg/kg. If it is not tolerated, the dose is decreased to 60 mg/kg. The pattern continues with the next decision point: if 315 mg/kg is well-tolerated, the dose is increased to the maximum of 500 mg/kg. If 315 mg/kg is not tolerated, the dose is decreased to 200 mg/kg.
The compounds would be considered not tolerated if three or more adverse effects (or any severe adverse effect) occurred at specific dose during the entire period of 60 mins. […] Mild—slight decrease in activity, responsive when provoked. Moderate—decrease in activity, less responsive when provoked.

[2] = tested on: cells; experiment: cell viability, XTT assay; assay type: cell-based; conditions: at the IC50 μM concentration of the compound
Experimental: (§1) The plants described herein were tested to determine the concentration, in μM, to achieve the relative IC50 of OR2 receptor, the absolute percent agonism achieved at the μM concentration of the relative OR2 IC50, the percentage receptor activity at the concentration, in μM, needed to achieve IC50 in OR2, the percentage cell viability, measured by XTT assay, at the IC50 μM concentration, the concentration of the fraction, in fold dilution, needed to achieve IC50 of OR2, and the percentage receptor activity at the concentration of the fraction, in fold dilution, needed to achieve IC50 of OR2.

[3] = biological target: T1, Orx1 (Homo sapiens, UniProt O43613); experiment: % agonism on Orx1 at the OR2 IC50 concentration; assay type: cell-based; conditions: at the μM concentration needed to achieve IC50 in OR2
T1 sequence (O43613 1-425): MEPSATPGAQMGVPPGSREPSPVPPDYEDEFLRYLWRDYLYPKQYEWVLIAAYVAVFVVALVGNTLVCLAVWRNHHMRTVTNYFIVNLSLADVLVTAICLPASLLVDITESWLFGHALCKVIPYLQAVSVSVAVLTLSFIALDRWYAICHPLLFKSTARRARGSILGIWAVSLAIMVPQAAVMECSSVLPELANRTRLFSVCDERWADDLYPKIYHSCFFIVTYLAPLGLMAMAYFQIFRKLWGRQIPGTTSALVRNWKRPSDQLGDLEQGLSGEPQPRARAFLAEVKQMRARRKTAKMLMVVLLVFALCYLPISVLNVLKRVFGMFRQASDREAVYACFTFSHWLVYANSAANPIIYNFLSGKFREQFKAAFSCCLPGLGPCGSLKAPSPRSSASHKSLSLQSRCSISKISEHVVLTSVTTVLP
Experimental: For this example, the following protocol was used: 1.) seed cells in 20 μL Cell Plating Reagent; 2.) incubate cells overnight at 37° C. and 5% CO2; 3.) treat cells with 2.5 μL 10× antagonist prepared in Compound Dilution Buffer (For OR2 screening, 2.5 μL of 1:100 natural product sample in DiscoverX cell plating reagent.
as §1

[4] = biological target: T2, Orx2 (Homo sapiens, UniProt O43614); experiment: Orx2 antagonist screening, chemiluminescent cell assay with Orexin B EC80; assay type: cell-based; conditions: for % Agonism Orx2 at Relative IC50: absolute percent agonism at the μM concentration of the relative OR2 IC50; for IC50: antagonist mode against Orexin B EC80, read-out: Relative IC50 of Orx2
T2 construct: DiscoverX
T2 sequence (O43614 1-444): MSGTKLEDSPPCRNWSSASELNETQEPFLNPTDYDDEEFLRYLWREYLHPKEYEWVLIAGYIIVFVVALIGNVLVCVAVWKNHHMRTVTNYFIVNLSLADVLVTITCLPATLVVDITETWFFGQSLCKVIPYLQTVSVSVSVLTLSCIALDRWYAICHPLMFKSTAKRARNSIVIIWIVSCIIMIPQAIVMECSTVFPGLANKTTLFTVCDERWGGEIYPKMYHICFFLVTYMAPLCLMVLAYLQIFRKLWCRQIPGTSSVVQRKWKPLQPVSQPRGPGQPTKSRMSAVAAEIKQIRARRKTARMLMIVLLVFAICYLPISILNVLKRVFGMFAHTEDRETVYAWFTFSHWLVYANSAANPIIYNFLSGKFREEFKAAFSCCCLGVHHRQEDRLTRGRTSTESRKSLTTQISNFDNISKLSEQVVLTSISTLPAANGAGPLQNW
Experimental: For this example, the following protocol was used: 1.) seed cells in 20 μL Cell Plating Reagent; 2.) incubate cells overnight at 37° C. and 5% CO2; 3.) treat cells with 2.5 μL 10× antagonist prepared in Compound Dilution Buffer (For OR2 screening, 2.5 μL of 1:100 natural product sample in DiscoverX cell plating reagent. Control antagonist, Seltorexant, 10× stock was prepared at 1500 nM); 4.) incubate for 30 minutes at 37° C. and 5% CO2; 5.) treat cells with 2.5 μL 10× agonist prepared in Compound Dilution Buffer (For OR2 screening, 2.5 μL of 10× Orexin B EC80, 252.7 nM); 6.) incubate for 90 minutes at 37° C. and 5% CO2; 7.) add 12.5 μL Working Detection Solution; 8.) incubate for 1 hour at room temperature in the dark; and 9.) read chemiluminescent signal.
as §1

For `O=c1cc(-c2ccc(O)c(O)c2)oc2cc(O)cc(O)c12` [Compound 13, 2-(3,4-dihydroxyphenyl)-5,7-dihydroxychromen-4-one], the “15 min effects (adverse effects)” value ([1]; 30 mg/kg p.o.) was “No adverse effects”, the “30 min effects (adverse effects)” value ([1]; 30 mg/kg p.o.) was “No adverse effects” and the “60 min effects (adverse effects)” value ([1]; 30 mg/kg p.o.) was “Reduced activity (3/3)”. The “15 min effects (adverse effects)” value ([1]; 100 mg/kg p.o.) was “No adverse effects”, the “30 min effects (adverse effects)” value ([1]; 100 mg/kg p.o.) was “Reduced activity” and the “60 min effects (adverse effects)” value ([1]; 100 mg/kg p.o.) was “No adverse effects”. For the same compound, the “15 min effects (adverse effects)” value ([1]; 315 mg/kg p.o.) was “No adverse effects”, the “30 min effects (adverse effects)” value ([1]; 315 mg/kg p.o.) was “No adverse effects” and the “60 min effects (adverse effects)” value ([1]; 315 mg/kg p.o.) was “No adverse effects”. The “15 min effects (adverse effects)” value ([1]; 500 mg/kg p.o.) was “Pica (2/3)”, the “30 min effects (adverse effects)” value ([1]; 500 mg/kg p.o.) was “Reduced activity; also recorded: Pica (2/3)” and the “60 min effects (adverse effects)” value ([1]; 500 mg/kg p.o.) was “Reduced activity (1/3)”. The tolerability [1] was “well-tolerated”, the “% Cell viability at IC50” value [2] was 98.24% and the “% Agonism on Orx1 at OR2 IC50” value [3] was 42.72%. For the same compound, the “% Agonism Orx2 at Relative IC50” value [4] was 50%, the IC50 [4] was 72.5 µM and the “IC50 Dilution of Orx2 (fold dilution)” value ([4]; concentration of the fraction of the plant source, in fold dilution, needed to achieve IC50 of OR2) was 2283.9 fold dilution.

With `COc1cc(-c2oc3c(OC)c(O[C@@H]4O[C@H](COC(C)=O)[C@@H](O)[C@H](O)[C@H]4O[C@@H]4O[C@@H](C)[C@H](O)[C@@H](O)[C@H]4O)cc(O)c3c(=O)c2O)ccc1O` [Compound 25, [(2R,3S,4S,5R,6S)-6-[3,5-dihydroxy-2-(4-hydroxy-3-methoxyphenyl)-8-methoxy-4-oxochromen-7-yl]oxy-3,4-dihydroxy-5-[(2S,3R,4R,5R,6S)-3,4,5-trihydroxy-6-methyloxan-2-yl]oxyoxan-2-yl]methyl acetate] the “% Cell viability at IC50” value [2] was 91.68%, the “% Agonism on Orx1 at OR2 IC50” value [3] was 103.7053% and the “% Agonism Orx2 at Relative IC50” value [4] was 50%. The IC50 [4] was 148 µM.

In the case of `O=c1c(O[C@@H]2OC[C@H](O)[C@H](O)[C@H]2O)c(-c2ccc(O)cc2)oc2cc(O)cc(O)c12` [Compound 26, 5,7-dihydroxy-2-(4-hydroxyphenyl)-3-[(2S,3R,4S,5S)-3,4,5-trihydroxyoxan-2-yl]oxychromen-4-one], the “15 min effects (adverse effects)” value ([1]; 30 mg/kg p.o.) is reported as “Reduced activity”, the “30 min effects (adverse effects)” value ([1]; 30 mg/kg p.o.) is reported as “No adverse effects” and the “60 min effects (adverse effects)” value ([1]; 30 mg/kg p.o.) is reported as “Reduced activity (3/3)”. For the same compound, the “15 min effects (adverse effects)” value ([1]; 100 mg/kg p.o.) was “Reduced activity”, the “30 min effects (adverse effects)” value ([1]; 100 mg/kg p.o.) was “Reduced activity” and the “60 min effects (adverse effects)” value ([1]; 100 mg/kg p.o.) was “Reduced activity (3/3)”. For the same compound, the “15 min effects (adverse effects)” value ([1]; 315 mg/kg p.o.) was “No adverse effects”, the “30 min effects (adverse effects)” value ([1]; 315 mg/kg p.o.) was “No adverse effects” and the “60 min effects (adverse effects)” value ([1]; 315 mg/kg p.o.) was “No adverse effects”. The “15 min effects (adverse effects)” value ([1]; 500 mg/kg p.o.) was “No adverse effects”, the “30 min effects (adverse effects)” value ([1]; 500 mg/kg p.o.) was “Reduced activity” and the “60 min effects (adverse effects)” value ([1]; 500 mg/kg p.o.) was “No adverse effects”. The tolerability [1] was “well-tolerated”, the “% Cell viability at IC50” value [2] was 98.95% and the “% Agonism on Orx1 at OR2 IC50” value [3] was 60.57%. For the same compound, the “% Agonism Orx2 at Relative IC50” value [4] was 40% and the IC50 [4] was 179 µM.

In the case of `O=c1c(O[C@@H]2O[C@@H](CO)[C@H](O)[C@H]2O)c(-c2ccc(O)cc2)oc2cc(O)cc(O)c12` [Compound 27, 3-[(2S,3R,4R,5S)-3,4-dihydroxy-5-(hydroxymethyl)oxolan-2-yl]oxy-5,7-dihydroxy-2-(4-hydroxyphenyl)chromen-4-one], the “% Cell viability at IC50” value [2] is reported as 101.69%, the “% Agonism on Orx1 at OR2 IC50” value [3] is reported as 56.18% and the “% Agonism Orx2 at Relative IC50” value [4] is reported as 45%. For the same compound, the IC50 [4] was 154 µM.

With `COc1c(O)cc2oc(-c3ccc(O[C@@H]4O[C@H](C(=O)O)[C@@H](O)[C@H](O)[C@H]4O)c(O)c3)c(OC)c(=O)c2c1O` [Compound 28, (2S,3S,4S,5R,6S)-6-[4-(5,7-dihydroxy-3,6-dimethoxy-4-oxochromen-2-yl)-2-hydroxyphenoxy]-3,4,5-trihydroxyoxane-2-carboxylic acid] the “% Cell viability at IC50” value [2] was 107.58%, the “% Agonism on Orx1 at OR2 IC50” value [3] was 75.74% and the “% Agonism Orx2 at Relative IC50” value [4] was 50%. The IC50 [4] was 154 µM.

With `Cc1cc(O)c2c(c1)C(=O)c1cc(O)cc(O[C@@H]3O[C@H](CO)[C@@H](O)[C@H](O)[C@H]3O)c1C2=O` [Compound 30, 1,6-dihydroxy-3-methyl-8-[(2S,3R,4S,5S,6R)-3,4,5-trihydroxy-6-(hydroxymethyl)oxan-2-yl]oxyanthracene-9,10-dione] the “% Cell viability at IC50” value [2] was 100%, the “% Agonism on Orx1 at OR2 IC50” value [3] was 26.23% and the “% Agonism Orx2 at Relative IC50” value [4] was 50%. For the same compound, the IC50 [4] was 81.3 µM.

— patent US20250281451A1, “COMPOSITIONS AND METHODS FOR MODULATING SLEEP AND USES THEREOF” (Brightseed, Inc., priority 2022, published 2025)
